Data on eleven molecules can be found in US9643933B2, “Compounds useful as antibiotic tolerance inhibitors” (priority 2013, dated 2017).

The subject of one assay is Pyocyanin. Put plainly: Pyocyanin Inhibition Assay. Type of assay: cell-based, P. aeruginosa, strain PA14. The conditions noted are these: Pseudomonas aeruginosa, PA14, 24 h, read-out: Pyocyanin Inhibition No. IC50 (μM). As for the experimental part: Test compounds are dissolved in DMSO at 10 mM and stored at −20° C. until needed. Seven test concentrations from 0.0032 micromolar to 31.6 micromolar are used for each compound.
P. aeruginosa, strain PA14, is inoculated into 5 mL of LB broth in a 15-mL sterile glass culture tube and incubated overnight at 37° C. under shaking (˜240 rpm). The overnight culture is then diluted in LB Broth to give an OD600=0.04 (T0 culture). Colony Forming Units (CFU)/mL of the overnight culture and T0 culture are determined by a series of 1:10 serial dilutions in sterile saline. 4×20 μL of each dilution is seeded on LB agar plates and incubated at 35±2° C. for 20 hours. CFU/mL is determined from the dilution that gives 2 to 50 colonies/20 μL.
For concentration response curve (CRC) experiments, internal standard, 2-((5-nitro-1H-indol-2-yl)thio)-N-(4-phenoxyphenyl)acetamide, a compound previously identified as an MvfR inhibitor (see Example 1 of US 2014-0066454 (WO 2012/116010)), and test compounds are serially diluted in DMSO to 200 times each final concentration (0.5% DMSO fmal), and 1 μL/well is dispensed in duplicate into 2 mL wells of a 96-well deep well plate. 200 μL/well of T0 culture are added to each internal standard/test compound well. Wells containing only T0 culture (200 200 μL/well) are used to determine pyocyanin control level and wells containing only LB broth (blank wells) are also included in the plate.
The plate is sealed and incubated at 37° C. under shaking (˜700 rpm) using a microtiter shaker for 24 hours. At the end of the incubation period, the plate is centrifuged at 4,000 g for 40 minutes at room temperature, 100 μL/well of the supernatant is transferred to a 96-microtiter PS flat-bottom plate, and absorbance at 690 nm is determined using SPECTROstar® Nano microplate reader. Pyocyanin concentration (M) is determined using the equation C=A690/(ε×d), where ε is the Pyocyanin extinction coefficient, at A690 nm ε is 4,310 M^−1 cm^−1 and d is the experimentally derived pathlength. The level of pyocyanin in the presence of test compound is expressed as percentage of inhibition with respect to the control. Curve fitting and IC50 determination were carried out using a four-parameter logistic model using GraphPad Prism v.5.

Assay [1] has as its system PQS. The assay is described as follows: PQS Inhibition Assay (24 Hour Incubation). It is filed as cell-based, P. aeruginosa PA14 wild-type strain. The conditions noted are these: Pseudomonas aeruginosa, PA14, 24 h, read-out: PQS (24 hr) IC50 (μM). The protocol: Test compounds are dissolved in DMSO at 10 mM and stored at −20° C. until needed. Seven test concentrations from 0.0032 micromolar to 31.6 micromolar are used for each compound. P. aeruginosa PA14 wild-type strain is inoculated into 5 mL LB broth in a 15-mL sterile glass culture tube and incubated overnight at 37° C. under shaking (˜240 rpm). The overnight culture is then diluted in LB Broth to give an OD600=0.04 (T0 culture). Colony Forming Units (CFU)/mL of the overnight culture and T0 culture are determined by a series of 1:10 serial dilutions in sterile saline. 4×20 μL of each dilution is seeded on LB agar plates and incubated at 35±2° C. for 20 hours. CFU/mL is determined from the dilution that gives 2 to 50 colonies/20 μL.
For concentration response curve (CRC) experiments, internal standard (2-((5-nitro-1H-indol-2-yl)thio)-N-(4-phenoxyphenyl)acetamide)) and test compounds are serially diluted in DMSO to give 200 times of each final concentration (0.5% DMSO final), and 1 μL/well is dispensed in duplicate into 2-mL wells of a 96 well deep well plate. 200 μL/well of T0 culture is added to each internal standard/test compound well used to determine PQS control level. Wells containing only LB broth (blank wells) are also included in the plate.
The plate is sealed and incubated at 37° C. for 24 hours under shaking (˜700 rpm) using a microtiter shaker. At the end of the incubation period, 150 μL/well of the deep well plate culture are transferred in a new non-sterile plate, and 150 μL/well of methanol containing tetra-deuterated PQS (D4-PQS) and 2% acetic acid are added to each well. The plate is sealed, shaken at high speed for 5 minutes and centrifuged at 4,000 g for 40 minutes at room temperature. 100 μL/well of the supernatant is then transferred to glass vials (vials crimp 0.2 mL) and kept at 4° C. until LC-MS/MS analysis.
PQSs quantification is carried out by analyzing samples in discrete batches together with spiked standards and blank samples.
Calibration curves are constructed from PQS standards, and respective deuterated PQS is used as an Internal Standards (IS) to calculate the concentration of analytes in the sample and improve the precision of the assay. The back-calculated concentrations of the calibration standards from the calibration curve shall be within ±20% of the nominal values, the range of the analytical method is determined, and the lower and upper limit of quantification specified.
Liquid chromatography separations are performed using an Agilent HP1100 system (Agilent Technologies) coupled with a CTC PAL Autosampler (CTC Analytics AG). Chromatographic retention is obtained using a monolithic column (Chromolith® RP-18, 50×4.6 mm). The solvent system consists of water containing 0.1% (v/v) formic acid (A) and acetonitrile containing 0.1% (v/v) formic acid (B). The gradient elution profile is chosen as follows: 0 min: 70% A (1500 μL/min), 0.3 min: 70% A (1500 μL/min), 1.3 min: 5% A (2500 μL/min), 1.6 min: 5% A (2500 μL/min).
The MS/MS analysis is performed with an API4000 series mass spectrometer (AB Sciex™) operating in Multiple Reaction Monitoring (MRM) mode and equipped with a TIS ion source. The specific ions monitored are PQS (m/z 260→m/z 175) and D4-PQS (m/z 264→m/z 179). The computer systems used in this study to acquire and quantify data may be an Analyst™ v1.5.
PQS in the presence of different concentrations of test compound are expressed as percentage of inhibition of the basal level in control samples. Curve fitting and IC50 estimations are carried out using a four parameter logistic model using GraphPad Prism v.5 program.

The next assay deals with HHQ. The assay is described as follows: Assay for HHQ Inhibition (6 Hour Incubation). It is filed as cell-based, P. aeruginosa PA14 wild-type strain. The conditions noted are these: Pseudomonas aeruginosa, PA14, 6 h, read-out: HHQ (6 hr) IC50 (μM). The protocol:
(§1) A concentration range with 7 test concentrations is chosen for each test compound. Typically concentration ranges for the PQS and HHQ assays are from 0.03 to 31.6 μM. Compounds are prepared in solvent, usually DMSO, at either 200 or 500 times the final test concentration.
(§2) P. aeruginosa PA14 wild-type strain is inoculated into 5 ml LB broth in a 15 ml sterile glass culture tube and incubated overnight at 37° C. under shaking (˜240 rpm). After overnight incubation, the bacterial culture is diluted in fresh LB broth to an OD600 nm=0.04, and 5 mL aliquots of the diluted bacterial culture are distributed into 15-mL glass tubes. 10 μL of test compound at 500 times the final test concentration or 25 μL of test compound at 200 times the final test concentration or solvent alone is added to each of the bacterial suspension tubes, and the tubes are incubated at 37° C. under shaking (300 rpm) for 6 hours. At the end of the incubation period, a 0.5 mL aliquot of bacterial suspension is transferred from each 15 mL glass tube, after shaking, to a 2 mL polypropylene vial. 0.5 mL of methanol-containing D4-PQS (deuterated-PQS), D4-HHQ (deuterated-HHQ) and 2% acetic acid are added to each 2 mL vial and each vial is vigorously shaken. The vials are then centrifuged for 5 minutes at 12,000 g, and 200 μL of supernatant from each vial is transferred to a glass vial (vials crimp 0.2 mL), and the sealed vials are kept at 4° C. until LC-MS/MS analysis is performed. HAQs quantification is carried out analyzing samples in discrete batches together with spiked standards and blank samples. Calibration curves are constructed from HAQs standards, and respective deuterated forms are used as Internal Standards (IS), to calculate the concentration of analytes in the sample and improve the precision of the assay. The back-calculated concentrations of the calibration standards from the calibration curve shall be within ±20% of the nominal values, the range of the analytical method is determined, and the lower and upper limit of quantification specified.
(§3) Liquid chromatography separations are performed using Agilent HP1100 system (Agilent Technologies) coupled with a CTC PAL Autosampler (CTC Analytics AG). Chromatographic retention is obtained using a monolithic column (Chromolith® RP-18, 50×4.6 mm). The solvent system consists of water containing 0.1% (v/v) formic acid (A) and acetonitrile containing 0.1% (v/v) formic acid (B). The gradient elution profile is chosen as follows: 0 min: 70% A (1500 μL/min), 0.3 min: 70% A (1500 μL/min), 1.3 min: 5% A (2500 μL/min), 1.6 min: 5% A (2500 μL/min).
(§4) The MS/MS analysis is performed with a API4000 series mass spectrometer (AB Sciex™) operating in Multiple Reaction Monitoring (MRM) mode and equipped with a TIS ion source. The specific ions monitored are PQS (m/z 260→m/z 175), D4-PQS (m/z 264→m/z 179), HHQ (m/z 244→m/z 159) and D4-HHQ (m/z 248→m/z 163). PQS and HHQ in presence of different test compound concentrations are expressed as percentage of inhibition of the basal level in control samples.

Assay [2] has as its system PQS. Put plainly: Assay for PQS Inhibition (6 Hour Incubation). The conditions noted are these: Pseudomonas aeruginosa, PA14, 6 h, read-out: PQS (6 hr) IC50 (μM). It is filed as cell-based, P. aeruginosa PA14 wild-type strain. The protocol: as §1, §2, §3, §4

Usually IC50 stands for the concentration that inhibits the measured activity by half. As to `N#Cc1ccc(NC(=O)CCc2nc3ccc([N+](=O)[O-])cc3[nH]2)cc1` [Compound 148, N-(4-cyanophenyl)-3-(6-nitro-1H-benzo[d]imidazol-2-yl)propanamide], the results for the half-maximal inhibitory concentration (IC50) in the assay with Pyocyanin and in the assay with PQS [1] were 1 to 10 µM and 5 to 10 µM, respectively.

For `N#Cc1ccc(NC(=O)COc2nc3ccc([N+](=O)[O-])cc3[nH]2)cc1` [Compound 149, N-(4-cyanophenyl)-2-((6-nitro-1H-benzo[d]imidazol-2-yl)oxy)acetamide], the half-maximal inhibitory concentration (IC50) in the assay with Pyocyanin was 1 to 10 µM; in the assay on PQS [1] it was more than 10 µM.

Consider `O=C(COc1nc2ccc([N+](=O)[O-])cc2[nH]1)Nc1ccc(Cl)cc1` [Compound 150, N-(4-chlorophenyl)-2-((6-nitro-1H-benzo[d]imidazol-2-yl)oxy)acetamide], for which the 50% inhibitory concentration (IC50) in the assay with Pyocyanin is 1 to 10 µM; with PQS [1], more than 10 µM.

For `O=C(CNc1nc2ccccc2[nH]1)Nc1ccc(Oc2cccnc2)cc1` [Compound 151], the IC50 with Pyocyanin and in the assay on PQS [1] was more than 10 µM throughout.

Consider `Cc1cc(NCC(=O)Nc2ccc(C#N)c(Cl)c2)ccc1Br` [Compound 153], for which the half-maximal inhibitory concentration (IC50) in the assay on Pyocyanin and in the assay with PQS [1] was more than 10 µM in each case.

With `Cc1cc(F)ccc1NC(=O)CNc1ccc(C#N)cc1` [Compound 154], the half-inhibitory concentration (IC50) in the assay with Pyocyanin and with PQS [1] was more than 10 µM each time.

With `N#Cc1ccc(NC(=O)CNc2ccc(F)cc2)cc1` [Compound 155], the IC50 in the assay with Pyocyanin and in the assay with PQS [1] was more than 10 µM in each case.

In the case of `N#Cc1ccc(NC(=O)CNc2ccc(Cl)cc2)cc1` [Compound 156], the IC50 in the assay with Pyocyanin and with PQS [1] was more than 10 µM in each case.

Take `N#Cc1ccc(NCC(=O)Nc2ccc(F)c(F)c2)nc1` [Compound 157]: the IC50 with Pyocyanin and in the assay with PQS [1] was more than 10 µM throughout.

In the case of `O=C(CNc1cccc(F)c1)Nc1cccc(Oc2ccccc2)c1` [Compound 158], the half-maximal inhibitory concentration (IC50) in the assay on Pyocyanin and with PQS [1] was more than 10 µM throughout.

In the case of `O=C(CNc1nc2ccc(Cl)cc2[nH]1)Nc1ccc(Oc2cccnc2)cc1` [Compound 159, 2-((5-chloro-1H-benzo[d]imidazol-2-yl)amino)-N-(4-(pyridin-3-yloxy)phenyl)acetamide], the IC50 with Pyocyanin was 0.1 to 1 µM; in the assay on HHQ, less than 1 µM; in the assay with PQS [2], less than 1 µM.
